The values that follow come from US20180263945A1, “PYRUVATE COMPOUNDS FOR TREATMENT OF PERIPHERAL NEUROPATHY” (Research Institute at Nationwide Children's Hospital, priority 2014, published 2018).

Assay [1] relates to Sciatic Nerves from Tr^J Mice. Kind of assay: Myelinated fiber density determinations, sciatic nerve crush/regeneration study (Example 1). As to conditions: 4% sodium pyruvate in drinking water, twenty weeks after crush. In kind it is in vivo. On the procedure: (§1) Six weeks old Tr^J mice (pmp22^Tr-J) were used in this study. A total of 8 Tr^J mice (mouse model for demyelinating CMT) were studied. Five received SP, 4% in drinking water, 3 mice left untreated to serve as control. All treatment protocols and animal surgeries were conducted under the protocols approved by the Nationwide Children's Hospital and The Ohio State University Animal Care and Use Committee. Animals were acclimatized by placing on 2.5% apple juice first, which was increased to 20% a week later. In one group (pyruvate group; n=5) sodium pyruvate (Sigma) was added to apple juice in 2.5% concentration and a week later increased to 4%. The pyruvate group remained 4% sodium pyruvate in 20% apple juice drinking water throughout the duration of the study. The control group (n=3) continued on 20% apple juice only. Drinking solutions were freshly prepared every other day.
Both groups underwent sciatic nerve crush procedure one week after starting on sodium pyruvate in apple juice or apple juice alone, providing the results shown in FIGS. 1 and 2. […]
Quantitative analysis at the light microscopic level was performed on 1 μm-thick toluidine blue stained cross sections from regenerating and intact uncrushed sciatic nerves from pyruvate and control groups. […] Unpaired t-test was calculated using graphPad Prism 6 program for comparison of the two sets of data.

Assay [2] relates to Sciatic Nerves from Tr^J Mice. The experiment in a line: g ratio of the myelinated fibers, sciatic nerve crush/regeneration study (Example 1). Type of assay: in vivo. As to conditions: for percent of fibers with G ratio less than 0.8: SP 4% in drinking water, 20 weeks; for percent of fibers within a G ratio range of 0.4-0.7: pyruvate group, control Tr^J 6.5%. The protocol:
as §1
Both groups underwent sciatic nerve crush procedure one week after starting on sodium pyruvate in apple juice or apple juice alone, providing the results shown in FIGS. 1 and 2. Under isoflurane anesthesia left sciatic nerves were exposed and crushed with a fine forceps at a level 5 mm distal to the sciatic notch to generate a regeneration paradigm as previously described. Sahenk et al., Exp Neurol 224, 495-506 (2010). The crush site was marked by a 10-0 nylon suture tie passed through the epineurium. Mice were then killed quickly by an over-dosage of xylazine/ketamine anesthesia and the sciatic nerves from crushed and intact sites were removed under a dissecting microscope. Approximately 2 mm in length tissue blocks immediately distal to the crush site and the subsequent three segments, all marked for proximo-distal orientation as well as the mid sciatic segments from the contralateral uncrushed nerves were processed for plastic embedding for light microscope thick sections and electron microscopy using standard methods established by the inventors.
The g ratio refers to the ratio of axonal diameter/fiber diameter and lower g ratios represent axons with thicker myelin. Beuche, W., and Friede, R. L., Acta Neuropathol 66, 29-36 (1985); Friede, R. L., and Beuche, W., J Neurol Neurosurg Psychiatry 48, 749-756 (1985). For each animal, measurements from all fibers in 3 randomly selected representative unit areas were included and the g ratio distribution histograms were generated as percent of total fibers analyzed as previously described. Measurements from regenerating and intact nerves were obtained in each group. One way ANOVA was used to determine statistical analysis.

Assay [3] relates to Tr^J mice. Kind of assay: Sciatic nerve conduction studies (Example 1). In kind it is in vivo. The text has this: Additional studies were designed to assess the efficacy of pyruvate treatment using a quantitative test that has functional significance. […] Among the parameters obtained from these studies CMAP is a direct measure of the size of the motor unit. Results were compared to age-matched Tr^J-control cohort. Functional studies (hind limb grip strength, wire hanging test and rotorod) were done at baseline and at 7 to 10 day intervals.
(§2) Nerve Conduction Studies: Sciatic motor nerve conduction studies were performed on mice under isoflurane anesthesia using a portable electrodiagnostic system (Synergy N2 EMG and nerve conduction study machine, Natus, Middleton, Wis.) as previously described. Yalvac et al., Mol Ther. 22(7):1353-63 (2014). Distance for electrode placement was measured using a compass with a needle edge and a millimeter-graduated tape measure. The sciatic motor nerve conduction responses were recorded using two fine ring electrodes (Alpine Biomed, Skovlunde, Denmark) used as the active (E1) and reference (E2) electrodes. The active recording electrode was placed over the mid portion of the gastrocnemius muscle and the reference electrode over the tendon. […] The parameters measured included compound muscle action potential (CMAP) amplitude, distal latency, and conduction velocity.

Assay [4] has as its system Tr^J mice. The experiment in a line: Functional studies: hind limb grip strength, wire hanging test (Example 1). Type of assay: in vivo. As to conditions: at 16 weeks of treatment. On the procedure: Additional studies were designed to assess the efficacy of pyruvate treatment using a quantitative test that has functional significance. Six Tr^J mice received SP in their drinking water and the sciatic nerve conduction studies were carried out at baseline and 16 weeks of SP supplementation. Among the parameters obtained from these studies CMAP is a direct measure of the size of the motor unit. Results were compared to age-matched Tr^J-control cohort. Functional studies (hind limb grip strength, wire hanging test and rotorod) were done at baseline and at 7 to 10 day intervals.
Wire Hang test: The mice were allowed to grasp by their four paws a 2-mm diameter metal wire maintained horizontally 35 cm above a thick layer of soft bedding (device made by the NCH Bioengineering Department according to the specifications of Klein et al.). Klein et al. J Neurosci Methods, 203:292-297 (2012). The length of time until the mice fell from the wire was recorded. After each fall, the mice were allowed to recover for 1 minute. […]
Motor function testing Tr^J mice were tested for baseline motor function within 1 week prior to receiving i.m. injection of ssAAV1.CMV.NT-3 or PBS. […] Bilateral or unilateral grip strength was assessed by allowing the animals to grasp a platform followed by pulling the animal until it releases the platform; the force measurements were recorded in four separate trials. […]

Assay [5] deals with TrJ mice. Kind of assay: Nerve conduction studies, AAV1.NT-3 and pyruvate combinatorial therapy (Example 2). In kind it is in vivo. As to conditions: 4 months of treatment, 4% SP in drinking water; control group decreased (P<0.05). The protocol:
FIG. 4 provides a bar graph showing the results of nerve conduction studies that were performed at baseline and endpoint following 4 months of treatment duration. […] (Error bars represent standard error of the mean. Student t test was performed).
Using the methods described below, nerve conduction studies were performed at the baseline and the endpoint, 4 months post-AAV1.NT-3 injection. During this period TrJ mice were given ad libitum access to drinking water containing 4% SP.
as §2

Assay [6] deals with TrJ mice. The experiment in a line: Motor function: grip strength test and four-limb wire hanging strength test (Example 2). As to conditions: endpoint, 4 months post injection; P<0.05. In kind it is in vivo.
Description: Mice were tested for motor functions at the endpoint (4 months post injection) by performing grip strength test and four-limb wire hanging strength test. […] (Error bars represent standard error of the mean. Student t test was performed).
Wire Hang test: The mice were allowed to grasp by their four paws a 2-mm diameter metal wire maintained horizontally 35 cm above a thick layer of soft bedding (device made by the NCH Bioengineering Department according to the specifications of Klein et al.). […] The length of time until the mice fell from the wire was recorded. After each fall, the mice were allowed to recover for 1 minute. Each session consisted of three trials from which the scores were averaged.
Motor function testing Tr^J mice were tested for baseline motor function within 1 week prior to receiving i.m. injection of ssAAV1.CMV.NT-3 or PBS. Motor function tests included bilateral simultaneous hindlimb grip power and that of the left hind paw using a grip strength meter (Chatillon Digital Meter; Model DFIS-2; Columbus Instruments, Columbus, Ohio). Bilateral or unilateral grip strength was assessed by allowing the animals to grasp a platform followed by pulling the animal until it releases the platform; the force measurements were recorded in four separate trials. Measurements were performed on the same day and time of each week. […]
Assay [7] concerns Sciatic Nerves from Tr^J Mice. The experiment in a line: Histopathology and myelinated fiber density, sciatic nerves at 16 weeks of treatment (Example 2). In kind it is in vivo.
In a further assay the test system is trembler^J (Tr^J) mouse. As to conditions: previous studies of the inventors; cited from earlier work.
The test system of another assay is CMT1A patients. As to conditions: previous studies of the inventors; cited from earlier work.

Take `CC(=O)C(=O)[O-].[Na+]` [pyruvate, sodium pyruvate]: the “Myelinated Fiber Density, Intact, mean ± SEM” value in [1] (intact (uncrushed) sciatic nerve, p = 0.0271 vs control) came out at 16583 ± 749 number/mm2. Besides, the “Myelinated Fiber Density, Regenerating, mean ± SEM” value in assay [1] (regenerating (crushed) sciatic nerve, p = 0.0075 vs control) is 18259 ± 1051 number/mm2. Moreover, in assay [2] (intact and regenerating sciatic nerves, lower g ratio = thicker myelin), the “G ratios (axon diameter/fiber diameter) in comparison to the control Tr^J” value is given as “significantly reduced”. Also, the “percent of fibers with G ratio less than 0.8” value in assay [2] (intact nerves, control 42%) is given as “about 53%”. In addition, in assay [2] (intact nerves), the “percent of fibers within a G ratio range of 0.4-0.7” value was “about 29%”. Also, the “percent of fibers with G ratio less than 0.8” value in assay [2] (regenerating nerves, control 17%) is reported as 43%. In addition, the “percent of fibers within a G ratio range of 0.4-0.7” value in assay [2] (regenerating nerves) is reported as 22%. In assay [2] (regenerating nerves, pyruvate supplementation), the “improving myelination during regeneration, more than that of the control group” value was “about 27%”. In addition, the “Trends for improvements in conduction velocities and distal latencies” value in the assay with Tr^J mice [3] (Tr^J mice, pyruvate supplementation) is on record as “not significant”. Further, the “CMAP amplitude of the Tr^J sciatic nerves, baseline vs endpoint” value with Tr^J mice [3] (pyruvate supplementation for 24 weeks, untreated controls deteriorated further) is reported as “protected CMAP amplitude”. Moreover, in the assay with Tr^J mice [4], the “hind limb grip strength compared to the untreated Tr^J controls” value is reported as “significantly better” and the “wire hanging test (WHT) compared to the untreated Tr^J controls” value was “significantly better”. The “CMAP amplitudes at the endpoint compared to the baseline” value with TrJ mice [5] was “preserved their CMAPs”. In the assay on TrJ mice [6], the “four-limb wire hanging strength test vs control group” value is “performed better than control group” and the “grip strength test vs control group” value is reported as “performed better than control group”. In [7] (TrJ mice, 16 weeks of treatment), the “myelinated fibers and myelin thickness in toluidine blue stained sciatic nerve sections vs untreated” value is “notable increase in myelinated fibers and increased myelin thickness”. Moreover, in assay [7] (sciatic nerves, Tr^J mice, treatment duration 16 wks), the “Myelinated Fiber Density, mean ± SEM” value stood at 15000.2 ± 878.4 number/mm2.

B1: neurotrophin-3 (protein, UniProt P20783 139-257, looked up)
Neurotrophin-3: YAEHKSHRGEYSVCDSESLWVTDKSSAIDIRGHQVTVLGEIKTGNSPVKQYFYETRCKEARPVKNGCRGIDDKHWNSQCKTSQTYVRALTSENNKLVGWRWIRIDTSCVCALSRKIGRT
modifications: Neurotrophin-3
notes: neurotrophic agent neurotrophin-3
Take B1: the “effect on trembler^J (Tr^J) mouse” value with trembler^J (Tr^J) mouse is “improved”. Further, the “efficacy in CMT1A patients” value in the assay on CMT1A patients is “showed efficacy”.
